Experimental data: paper PMC7156724, “Potent BRD4 inhibitor suppresses cancer cell-macrophage interaction” (Nature Communications, 2020)
“And” between values parts separate entries of the source, which are not always exact repeats. Equal values may be shown once.

Assays:
A375 human melanoma = A375 human melanoma xenograft tumor growth; format: in vivo, mouse; conditions: Fig.3e, 5 Days on, 2 Days off / week x3, individual animals
Excerpt: PO, oral administration; QD, once daily; BID, twice daily. b–d Tumor growth curves for A2780 ovarian tumor (n = 5) (b), TMD8 large B cell lymphoma (n = 6) (c), and B16F10 melanoma (n = 5) (d) bearing mice treated with the indicated compounds once daily for 11-21 days. e, f Tumor growth curves for A375 melanoma (n = 6) (e), and patient-derived xenograft (PDX) of melanoma (n = 5) (f) bearing mice treated with the indicated compounds once daily (5 days on, 2 days off) for 21 days. For d–f, NHWD-870 used is NHWD-870-HCl synthesized using Suzuki coupling route. Data are presented as mean ± SEM in (a, b, d, f) and mean + SEM in (c, e). p values were calculated using two-tailed, unpaired t tests. *p < 0.05; **p < 0.01; ***p < 0.001. Source data are provided as a Source Data file.
4–6 weeks old female BALB/c nude mice were used for most experiments, with the exception of 6–8 weeks old female C57BL/6 mice were used for B16F10 experiments, and 6–8 weeks old male BALB/c nude mice and SD rats were used for pharmacokinetic experiments. All animals were purchased from Shanghai SIPPR-Bk Lab Animal Co., Ltd. All animals were housed under a regimen of 12 h light/12 h dark cycles and specific pathogen-free conditions. 5×10^6 NCI-H526, ES-2, MDA-MB231, A2780, A375, B16F10, and TMD-8 cells (0.1 ml) were injected subcutaneously into female nude mice. The melanoma patient-derived xenograft model was derived from a human melanoma sample (BRAF, NARS and NF1 wild type, and p53 mutant) removed from a patient in Xiangya Hospital. Surgically removed tumor fragments were implanted subcutaneously into female NSG mice. When the tumors grew to ~1000 mm^3, they were harvested and cryopreserved or immediately re-implanted for expansion or experiments. Mouse body weight and tumor sizes were measured every 3 days. Once the tumors grew to 150–200 mm^3, mice were treated with the compounds as described in the Figures. 1 × 10^6 A2780 cells (1 ml) were injected into the abdominal cavity of nude mice. Ascitic volume and tumor weight were measured by an electronic balance. All the procedures were evaluated and approved by the Institutional Animal Care and Use Committee of Central South University and Yale University. […]
We apologize for not clearly labeling the experiments using compounds synthesized using Suzuki coupling method. In the revised manuscript, we modified the text to clearly mark the animal models in Fig 3d-f were tested using NHWD-870 synthesized using Suzuki […]
compared the activity of NHWD-870 synthesized using Stille coupling route with the NHWD-870 synthesized from Suzuki coupling route (Reviewer Figure 1). […]
activity and possible toxicity were identical.
Reviewer Figure 1 NHWD-870 synthesized through Stille or Suzuki route has similar properties in vivo. Tumor bearing mice were treated with 2mg/kg of the indicated compounds, orally administrated once daily for 21 days. Shown are tumor growth curves (a) and body weight change (b) for A375 melanoma bearing mice. […]
986158 in terms of potency, but apart from with the A375 melanocyte cell line, the advance seems relatively moderate. With such similar compounds, the pharmacokinetic properties and ability to accumulate at the desired site is often more important. Figure S6d (prev. Fig. 3d) in the previous

[1] = Metabolic stability assay, dog liver microsomes; conditions: in % (unit assumed)
Description: (§1) 7. Metabolic stability assay. The metabolic profile of NHWD-870 was determined using mouse, rat, dog, monkey, and human liver microsomes using the protocols […]
(§2) No. Compound ID Exat Mass Stock Conc.
(§3) 1) 100 mM potassium phosphate buffer, PH7.4; 2) 10mM MgCI2
(§4) 1) Intermediate solution: Dilute 5 μL of compound or control from stock solution (10 mM) with 45 uL DMSO,then mixed with 450 μL 1:1 Methanol/Water (Conc.: 10 0 […]
(§5) 2) Working solution: Dilute 50 μL from intermediate solution with 450 μL 100 mM potassium phosphate buffer (Conc.: 10 μM, 4.5%MeOH)
(§6) (3) NADPH regenerating system (final Isocitric dehydrogenase conc.= 1 unit/mL at […]
(§7) 1) β-Nicotinamide adenine dinucleotide phosphate, Vendor: sigma Cat. No. N0505
(§8) 2) Isocitric acid, Vendor: Sigma Cat. No. I1252
(§9) 3) Isocitric dehydrogenase, Vendor: sigma Cat. No. I2002
(§10) (4) Liver microsome solution preparation (final concentration o f 0.5 mg protein/mL) […]
(§11) Cold ACN including 100 ng/mL Tolbutamide and 100 ng/mL Labetalol as internal […]
(§12) 1) Add 10 μL compound or control working solution/well to all plates (T0, T5, T10, T20, T30, T60, NCF60) except matrix blank.
(§13) 2) Dispense 680 μL/well microsome solution to 96-well plate as reserv oir according to […]
(§14) plate map. Then add 80 μL/well to every plate by Apricot, incubate the mixture of microsome solution and compound at 37℃ for about 10 min.
(§15) 3) Add 10 μL 100 mM potassium phosphate buffer/well to NCF60, incubate at 37℃, […]
(§16) 4) After pre-warming, dispense 90 μL/well NADPH regenerating system to 96-well plate as reservoir according to the plate map. Then add 10 μL/well to every plate by Apricot to start reaction.
(§17) 5) Incubate at 37℃, start timer 2.
(§18) 6) Add 300 (μL/well) stop solution (cold in 4℃, including 100 ng/mL Tolbutamide and 100 ng/mL Labetalol) to terminate the reaction.
(§19) 7) The sampling plates are shaked for approx 10 min.
(§20) 8) Samples are centrifuged at 4000 rpm for 20 min under 4℃.
(§21) 9) While centrifuging, load 8×new 96-well plate with 300 μL HPLC water, then transfer 100 μL supernatant, mixed for LC/MS/MS.
(§22) Use equation of first order kinetics to calculate t1/2 and Clin t(mic): […]
(§23) Equation of first order kinetics: […]

[2] = Metabolic stability assay, monkey liver microsomes; conditions: in % (unit assumed)
Description: as §1, §2, §3, §4, §5, §6, §7, §8, §9, §10, §11, §12, §13, §14, §15, §16, §17, §18, §19, §20, §21, §22, §23

[3] = Metabolic stability assay, human liver microsomes; conditions: in % (unit assumed)
Description: as §1, §2, §3, §4, §5, §6, §7, §8, §9, §10, §11, §12, §13, §14, §15, §16, §17, §18, §19, §20, §21, §22, §23

[4] = Metabolic stability assay, rat liver microsomes; conditions: in % (unit assumed)
Description: as §1, §2, §3, §4, §5, §6, §7, §8, §9, §10, §11, §12, §13, §14, §15, §16, §17, §18, §19, §20, §21, §22, §23

## Cc1nnn(C)c1-c1cnc2c3c4cnn(C)c4ccc3n([C@H](c3ccccc3)C3CCOCC3)c2c1.Cl [NHWD-870-HCl]
A375 human melanoma; 2 mg/kg PO QD, day 0
  Tumor volume: 124.032 mm3 and 120.497 mm3 and 183.857 mm3 and 155.659 mm3 and 140.462 mm3 and 187.897 mm3
A375 human melanoma; 2 mg/kg PO QD, day 4
  Tumor volume: 125.079 mm3 and 148.629 mm3 and 180.193 mm3 and 187.061 mm3 and 149.381 mm3 and 207.594 mm3
A375 human melanoma; 2 mg/kg PO QD, day 7
  Tumor volume: 119.983 mm3 and 238.282 mm3 and 335.392 mm3 and 359 mm3 and 146.599 mm3 and 237.29 mm3
A375 human melanoma; 2 mg/kg PO QD, day 11
  Tumor volume: 204.214 mm3 and 361.187 mm3 and 438.176 mm3 and 511.029 mm3 and 273.013 mm3 and 310.165 mm3
A375 human melanoma; 2 mg/kg PO QD, day 14
  Tumor volume: 396.493 mm3 and 659.962 mm3 and 783.286 mm3 and 668.171 mm3 and 489.424 mm3 and 499.77 mm3
A375 human melanoma; 2 mg/kg PO QD, day 18
  Tumor volume: 580.818 mm3 and 828.001 mm3 and 941.933 mm3 and 817.427 mm3 and 615.591 mm3 and 523.033 mm3
A375 human melanoma; 2 mg/kg PO QD, day 21
  Tumor volume: 932.477 mm3 and 934.695 mm3 and 1116.85 mm3 and 993.943 mm3 and 830.361 mm3 and 759.477 mm3
A375 human melanoma; 3 mg/kg PO QD, day 0
  Tumor volume: 187.407 mm3 and 129.823 mm3 and 123.552 mm3 and 162.978 mm3 and 197.865 mm3 and 111.638 mm3
A375 human melanoma; 3 mg/kg PO QD, day 4
  Tumor volume: 180.115 mm3 and 100.661 mm3 and 101.808 mm3 and 169.071 mm3 and 201.772 mm3 and 81.9823 mm3
A375 human melanoma; 3 mg/kg PO QD, day 7
  Tumor volume: 354.946 mm3 and 108.136 mm3 and 132.2 mm3 and 290.979 mm3 and 435.513 mm3 and 83.7227 mm3
A375 human melanoma; 3 mg/kg PO QD, day 11
  Tumor volume: 333.816 mm3 and 123.623 mm3 and 211.51 mm3 and 368.326 mm3 and 511.795 mm3 and 108.132 mm3
A375 human melanoma; 3 mg/kg PO QD, day 14
  Tumor volume: 869.938 mm3 and 282.077 mm3 and 467.223 mm3 and 627.735 mm3 and 985.207 mm3 and 153.932 mm3
A375 human melanoma; 3 mg/kg PO QD, day 18
  Tumor volume: 947.479 mm3 and 354.935 mm3 and 602.443 mm3 and 703.598 mm3 and 1037.76 mm3 and 172.297 mm3
A375 human melanoma; 3 mg/kg PO QD, day 21
  Tumor volume: 1152.24 mm3 and 633.313 mm3 and 890.897 mm3 and 1097.51 mm3 and 1306.53 mm3 and 328.738 mm3
A375 human melanoma; Group 4, 1 mg/kg PO QD, day 0
  Tumor volume: 129.244 mm3 and 160.038 mm3 and 169.001 mm3
A375 human melanoma; Group 4, 1 mg/kg PO QD, day 4
  Tumor volume: 194.913 mm3 and 185.189 mm3
A375 human melanoma; Group 4, 1 mg/kg PO QD, day 7
  Tumor volume: 287.4 mm3 and 179.028 mm3
A375 human melanoma; Group 4, 1 mg/kg PO QD, day 11
  Tumor volume: 471.867 mm3 and 223.232 mm3
A375 human melanoma; Group 4, 1 mg/kg PO QD, day 14
  Tumor volume: 761.481 mm3 and 416.901 mm3
A375 human melanoma; Group 4, 1 mg/kg PO QD, day 18
  Tumor volume: 1193.81 mm3 and 502.306 mm3
A375 human melanoma; Group 4, 1 mg/kg PO QD, day 21
  Tumor volume: 1260.17 mm3 and 803.56 mm3 and 2033.79 mm3

## C[C@]12CC[C@H]3[C@@H](CCC4=CC(=O)CC[C@@]43C)[C@@H]1CC[C@@H]2O [Testosterone]
[1]; time 0
  Remaining in Dog liver microsomes (Sup Fig.6c): 100
[1]; time 5
  Remaining in Dog liver microsomes (Sup Fig.6c): 51.913
[1]; time 10
  Remaining in Dog liver microsomes (Sup Fig.6c): 27.194
[1]; time 20
  Remaining in Dog liver microsomes (Sup Fig.6c): 14.015
[1]; time 30
  Remaining in Dog liver microsomes (Sup Fig.6c): 6.615
[1]; time 60
  Remaining in Dog liver microsomes (Sup Fig.6c): 0
[2]; time 0
  Remaining in Monkey liver microsomes (Sup Fig.6d): 100
[2]; time 5
  Remaining in Monkey liver microsomes (Sup Fig.6d): 72.293
[2]; time 10
  Remaining in Monkey liver microsomes (Sup Fig.6d): 57.852
[2]; time 20
  Remaining in Monkey liver microsomes (Sup Fig.6d): 51.22
[2]; time 30
  Remaining in Monkey liver microsomes (Sup Fig.6d): 37.184
[2]; time 60
  Remaining in Monkey liver microsomes (Sup Fig.6d): 14.336
[3]; time 0
  Remaining in Human liver microsomes (Sup Fig.6e): 100
[3]; time 5
  Remaining in Human liver microsomes (Sup Fig.6e): 82.349
[3]; time 10
  Remaining in Human liver microsomes (Sup Fig.6e): 75.006
[3]; time 20
  Remaining in Human liver microsomes (Sup Fig.6e): 64.528
[3]; time 30
  Remaining in Human liver microsomes (Sup Fig.6e): 50.522
[3]; time 60
  Remaining in Human liver microsomes (Sup Fig.6e): 21.403
[4]; time 0
  Remaining in rat liver microsomes (Sup Fig.6b): 100
[4]; time 5
  Remaining in rat liver microsomes (Sup Fig.6b): 0.549
[4]; time 10
  Remaining in rat liver microsomes (Sup Fig.6b): 0
[4]; time 20
  Remaining in rat liver microsomes (Sup Fig.6b): 0
[4]; time 30
  Remaining in rat liver microsomes (Sup Fig.6b): 0
[4]; time 60
  Remaining in rat liver microsomes (Sup Fig.6b): 0
